Experimental findings from paper PMC6189370, “Olmutinib (BI1482694/HM61713), a Novel Epidermal Growth Factor Receptor Tyrosine Kinase Inhibitor, Reverses ABCG2-Mediated Multidrug Resistance in Cancer Cells” (Frontiers in Pharmacology, 2018) are described below.

For the test, the target named is T1, ABCG2 (Homo sapiens, UniProt Q9UNQ0).
T1 construct: membrane vesicles of High Five insect cells
T1 sequence (Q9UNQ0 1-655): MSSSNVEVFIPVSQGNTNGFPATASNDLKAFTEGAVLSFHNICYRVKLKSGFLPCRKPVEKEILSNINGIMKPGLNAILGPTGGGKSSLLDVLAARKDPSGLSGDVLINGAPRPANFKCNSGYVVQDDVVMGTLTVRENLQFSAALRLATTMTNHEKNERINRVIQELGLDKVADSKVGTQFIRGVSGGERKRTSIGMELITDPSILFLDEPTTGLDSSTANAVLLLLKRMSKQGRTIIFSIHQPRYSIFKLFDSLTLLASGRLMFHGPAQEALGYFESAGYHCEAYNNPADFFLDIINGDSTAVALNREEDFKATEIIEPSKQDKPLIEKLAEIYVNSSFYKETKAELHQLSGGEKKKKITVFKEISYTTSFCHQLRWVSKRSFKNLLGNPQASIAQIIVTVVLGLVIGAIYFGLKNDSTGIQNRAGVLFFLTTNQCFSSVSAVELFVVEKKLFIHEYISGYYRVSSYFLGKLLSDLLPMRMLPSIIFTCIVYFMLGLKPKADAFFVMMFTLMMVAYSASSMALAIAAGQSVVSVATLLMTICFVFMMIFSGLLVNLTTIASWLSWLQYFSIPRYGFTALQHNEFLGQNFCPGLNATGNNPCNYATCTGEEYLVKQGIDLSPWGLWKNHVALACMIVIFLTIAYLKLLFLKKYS
In words: biochemical.

The structures appear in SMILES notation.

For `C=CC(=O)Nc1cccc(Oc2nc(Nc3ccc(N4CCN(C)CC4)cc3)nc3ccsc23)c1` [olmutinib], the midpoint of the response, the EC50, lay at 2200 nM.
